{"source": "patent US4845123A", "about": "“Reduction in vivo of the inappropriate levels of endogenous and environmental-derived compounds by sustained-release inhibitors of β- g” (priority 1985, dated 1989)", "key": {"Organ DNA": {"test_system": "Organ DNA", "experiment": "in vivo covalent binding of [14C]BP to organ DNA", "set-up": "species or system rat", "conditions": "for Covalent Binding Index (of BP), +DAGDL: DAGDL 1.5 mmol/kg 0.5 hours before [14C]BP; for inhibition at 1500 µmol/kg: Rattus norvegicus, DAGDL 1.5 mmol/kg", "description": "Experimental rats were pretreated 0.5 hours earlier with one dose of 1.5 mmol/kg body weight of DAGDL which was administered by stomach tube as a suspension in 1.0 ml of sesame oil, while control rats received the vehicle only. The experimental and control group contained 2 rats each. Heart, kidney, liver, lung and mammary gland were removed under ether anesthesia 48 hours post-administration of BP. The DNA was isolated immediately and purified by chloroform phenol extraction of organ homogenates. In the case of mammary gland, the homogenate was treated with collagenase II. Following purification with ribonuclease A and protease K, the DNA concentration was estimated by U.V. absorption and the bound radioactivity was determined by radioassay in liquid scintillant.\nIn this experiment 50 day old female rats of the Sprague Dawley strain received 1.5 mmol/kg of DAGDL 0.5 hours before the intraperitoneal injection of 7.9 μmol/kg of [^14 C]BP. The DNA was extracted from the tissues and radioassayed by established procedures."}, "[1]": {"experiment": "acute toxicity (weight loss) of N-methylnitrosourea", "assay_type": "in vivo, rat", "conditions": "21 days after treatment with MNU"}, "[2]": {"test_system": "MNU-induced mammary tumors", "experiment": "MNU-induced mammary carcinogenesis", "assay_type": "in vivo, rat", "conditions": "MNU 40 mg/kg i.v., DAGDL 2 dose schedule; FIG. 10", "description": "In this experiment, MNU (40 mg/kg) was administered to 50 day old Sprague Dawley female rats by i.v. injection. One half of the rats were co-administered DAGDL according to a 2 dose schedule."}, "serum β-glucuronidase [3]": {"biological_target": "T1, serum β-glucuronidase (Rattus norvegicus, UniProt P06760)", "T1 sequence (P06760 23-648)": "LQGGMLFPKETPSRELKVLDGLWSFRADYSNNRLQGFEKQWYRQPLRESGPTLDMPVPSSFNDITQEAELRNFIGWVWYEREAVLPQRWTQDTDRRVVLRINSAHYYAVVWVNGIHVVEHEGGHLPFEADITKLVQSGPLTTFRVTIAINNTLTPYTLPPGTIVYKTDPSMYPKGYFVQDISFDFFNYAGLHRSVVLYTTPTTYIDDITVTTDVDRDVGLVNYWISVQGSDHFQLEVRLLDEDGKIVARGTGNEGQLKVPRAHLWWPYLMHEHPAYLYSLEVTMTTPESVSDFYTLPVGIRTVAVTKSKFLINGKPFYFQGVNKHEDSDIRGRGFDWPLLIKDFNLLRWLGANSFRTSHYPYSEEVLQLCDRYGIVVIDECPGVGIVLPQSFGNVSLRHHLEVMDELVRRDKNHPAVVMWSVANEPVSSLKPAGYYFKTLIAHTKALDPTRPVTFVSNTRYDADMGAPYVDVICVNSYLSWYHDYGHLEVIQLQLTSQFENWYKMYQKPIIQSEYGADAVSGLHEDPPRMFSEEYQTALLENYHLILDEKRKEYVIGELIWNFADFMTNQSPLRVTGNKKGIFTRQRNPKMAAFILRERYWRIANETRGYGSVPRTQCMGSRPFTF", "conditions": "Iida et al. 1965; cited from earlier work"}, "serum β-glucuronidase [4]": {"biological_target": "T1, serum β-glucuronidase", "assay_type": "in vivo", "conditions": "1.0 mmoles/kg i.g., assayed 1 hour after administration"}, "bladder tumor [5]": {"test_system": "bladder tumor", "conditions": "Miyakawa et al. 1973; DAGDL given at same time as carcinogen; cited from earlier work"}, "bladder tumor [6]": {"test_system": "bladder tumor", "conditions": "Uemura et al. 1975; cited from earlier work"}, "bladder tumors": {"test_system": "bladder tumors", "conditions": "Boyland et al. 1964 (GL); Katayama 1972 (DAGDL); cited from earlier work"}, "[7]": {"conditions": "Furuno et al. 1975; cited from earlier work"}, "[8]": {"test_system": "tumor initiation by 7,12-dimethylbenzanthracene (DMBA)", "conditions": "Walaszek et al. 1984; cited from earlier work"}, "[9]": {"test_system": "diabetes, rheumatoid arthritis, toxemia in pregnancy and bladder cancer", "conditions": "review of the medical literature; cited from earlier work"}, "[10]": {"test_system": "DMBA-induced mammary tumors", "experiment": "DMBA-induced mammary tumorigenesis, initiation, promotion and tumor regression", "assay_type": "in vivo, rat", "description": "Fifty day old female Sprague Dawley rats were utilized in these experiments. For induction of mammary tumors the rats received a single dose of 130 mg/kg of DMBA in sesame oil by gavage. Animals pretreated with CGT received 4.5 mmoles/kg of CGT in sesame oil at 3 hours and again at 0.5 hours before administration of the carcinogen. This protocol tests the inhibitory effect of CGT on the initiation phase. Alternatively, the rats were fed a standard chow diet supplemented with 10% CGT (w/w). To evaluate the effect of CGT on the promotion phase the rats were changed from the chow diet to the CGT supplemented diet two weeks after treatment with DMBA. One mole of glucarate is converted to approximately one-third of a mole of GL in an equilibrated aqueous solution.\nThe mammary tumors were measured with micrometer calipers. Two measurements were taken, the longest dimension and dimension at right angles to this parameter.\nAt this time, the rats were transferred from a chow diet to a chow diet supplemented with 10% CGT. This diet was continued until the termination of the experiment. […] Three groups each, with eighteen 50 day old rats, were given intragastrically a single dose of 20 mg of DMBA in 1.0 ml of sesame oil. One group ( -- ) received 4.5 mmoles/kg of CGT by stomach tube at 3 hours and again at 0.5 hours before DMBA. A second (control) group (.circle.O--O.circle.) received vehicle (i.e. sesame oil) only at the same two time periods. Both of these groups were then put on regular chow diet."}}}
{"compound": "CC(=O)O[C@@H]1C(=O)O[C@H]2[C@@H]1OC(=O)[C@@H]2OC(C)=O", "note": "[DAGDL, 2,5-di-O-acetyl-D-glucaro-1,4;6,3-dilactone]", "values": [{"measurement": "Covalent Binding Index (of BP), +DAGDL", "setting": "Organ DNA; Heart", "value": 10}, {"measurement": "Covalent Binding Index (of BP), +DAGDL", "setting": "Organ DNA; Kidney", "value": 12}, {"measurement": "Covalent Binding Index (of BP), +DAGDL", "setting": "Organ DNA; Liver", "value": 9}, {"measurement": "Covalent Binding Index (of BP), +DAGDL", "setting": "Organ DNA; Lung", "value": 8}, {"measurement": "Covalent Binding Index (of BP), +DAGDL", "setting": "Organ DNA; Mammary gland", "value": 20}, {"measurement": "inhibition at 1500 µmol/kg", "setting": "Organ DNA; Heart", "value": 44, "unit": "%"}, {"measurement": "inhibition at 1500 µmol/kg", "setting": "Organ DNA; Kidney", "value": 69, "unit": "%"}, {"measurement": "inhibition at 1500 µmol/kg", "setting": "Organ DNA; Liver", "value": 63, "unit": "%"}, {"measurement": "inhibition at 1500 µmol/kg", "setting": "Organ DNA; Lung", "value": 72, "unit": "%"}, {"measurement": "inhibition at 1500 µmol/kg", "setting": "Organ DNA; Mammary gland", "value": 47, "unit": "%"}, {"measurement": "difference in toxicity-induced weight loss of DAGDL-treated and non-treated rats", "setting": "[1]", "value": "approximately 100 g"}, {"measurement": "inhibition of mammary tumor development", "setting": "[2]", "value": "approx. 4 fold"}, {"measurement": "potency as in vivo β-glucuronidase inhibitor", "setting": "serum β-glucuronidase [3]", "value": "potent"}, {"measurement": "reduction of serum β-glucuronidase activity", "setting": "serum β-glucuronidase [4]", "value": 50, "unit": "%"}, {"measurement": "effect on bladder tumor incidence with 2-AAF", "setting": "bladder tumor [5]", "value": "did not disclose any significant difference"}, {"measurement": "inhibition of N-butyl-N-(4-butanol)nitrosamine-mediated bladder tumor", "setting": "bladder tumor [6]", "value": "unsuccessful"}, {"measurement": "clinical effect in prevention of bladder tumors", "setting": "bladder tumors", "value": "only a slight beneficial effect"}, {"measurement": "clearance of antibiotics which cause kidney damage", "setting": "[7]", "value": "inconclusive results"}, {"measurement": "effect on initiation of tumor by DMBA", "setting": "[8]", "value": "inhibited"}, {"measurement": "treatment of existing diseases", "setting": "[9]", "value": "unsuccessful"}]}
{"compound": "O=C([O-])[C@@H](O)[C@@H](O)[C@H](O)[C@@H](O)C(=O)[O-].[Ca+2]", "note": "[CGT, calcium D-glucarate]", "values": [{"measurement": "effect on DMBA-induced tumors which escape the anti-promoter effects", "setting": "[10]; 10% CGT diet", "value": "significant regression"}, {"measurement": "reduction of the overall tumor incidence due to tumor regression", "setting": "[10]; 10% CGT diet", "value": 14, "unit": "%"}, {"measurement": "effect on promotion phase of DMBA-induced mammary carcinogenesis", "setting": "[10]; 10% CGT diet from 2 weeks post-DMBA", "value": "significantly inhibits the promotion phase"}, {"measurement": "tumor induction as percent of that in the controls", "setting": "[10]; 10% CGT diet from 2 weeks post-DMBA (promotion phase), by 28 weeks", "value": 30, "unit": "%"}, {"measurement": "Average Tumor Volume", "setting": "[10]; 10% CGT diet, 16 wks (spread ± 0.57 on separate line)", "value": 2.82, "unit": "cm^3"}, {"measurement": "Average Tumor Volume", "setting": "[10]; 10% CGT diet, 20 wks (spread ± 0.76 on separate line)", "value": 2.17, "unit": "cm^3"}, {"measurement": "Average Tumor Volume", "setting": "[10]; 10% CGT diet, 24 wks (spread ± 0.87 on separate line)", "value": 1.87, "unit": "cm^3"}, {"measurement": "Average Tumor Volume", "setting": "[10]; 10% CGT diet, 28 wks", "value": "1.20 ± 0.82", "unit": "cm^3"}, {"measurement": "Average Tumor Volume", "setting": "[10]; 10% CGT diet, 32 wks", "value": "1.02 ± 0.77", "unit": "cm^3"}, {"measurement": "reduction in percentage of rats with tumors", "setting": "[10]; 10% CGT diet, average, between 18 and 28 days (so in the source)", "value": 70, "unit": "%"}, {"measurement": "overall tumor incidence", "setting": "[10]; 10% CGT supplemented diet beginning 2 weeks post-DMBA treatment", "value": 33, "unit": "%"}, {"measurement": "tumors per rat in rats with tumors", "setting": "[10]; CGT diet supplemented group, essentially all rats with tumors", "value": "only one tumor per rat"}]}
